Drawing on article doi:10.1101/2023.07.10.548257 (bioRxiv, 2024), this text covers EC50 for nine molecules.

This assay addresses T1, full-length SHP2^T42A (Homo sapiens, UniProt Q06124, T42A).
T1 construct: Full-length SHP2 constructs were diluted in assay buffer; His6-TEV (N, cleaved yes); made in house; host or cells: E. coli BL21(DE3)
T1 sequence (Q06124 1-593 T42A): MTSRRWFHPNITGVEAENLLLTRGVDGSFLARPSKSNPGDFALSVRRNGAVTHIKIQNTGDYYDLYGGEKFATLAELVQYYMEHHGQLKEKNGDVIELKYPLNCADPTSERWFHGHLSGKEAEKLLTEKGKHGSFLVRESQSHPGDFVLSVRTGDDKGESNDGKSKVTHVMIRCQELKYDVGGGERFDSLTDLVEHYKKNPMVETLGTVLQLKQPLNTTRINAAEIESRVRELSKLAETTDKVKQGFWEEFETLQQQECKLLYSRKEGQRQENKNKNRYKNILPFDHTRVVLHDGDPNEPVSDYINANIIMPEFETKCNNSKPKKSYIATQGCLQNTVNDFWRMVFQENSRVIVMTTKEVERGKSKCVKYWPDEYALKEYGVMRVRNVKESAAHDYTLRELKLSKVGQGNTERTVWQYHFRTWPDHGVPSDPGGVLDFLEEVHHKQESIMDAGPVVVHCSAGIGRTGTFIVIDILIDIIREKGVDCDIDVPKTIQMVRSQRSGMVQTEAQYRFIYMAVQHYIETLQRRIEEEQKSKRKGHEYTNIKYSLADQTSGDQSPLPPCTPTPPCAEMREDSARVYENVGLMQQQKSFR
Put plainly: SHP2 activation assay using phosphopeptides (DiFMUP), SHP2 T42A. Type of assay: biochemical. The note with it: activation of full-length SHP2 T42A (0.05 nM) by phosphopeptide; DiFMUP substrate; HEPES pH 7.2 assay buffer; mean of N (column N).
For the molecule `CC[C@H](C)[C@H](NC(=O)[C@H](Cc1ccc(OP(=O)(O)O)cc1)NC(=O)[C@H](CC(N)=O)NC(=O)[C@H](CC(C)C)NC(=O)CNC(=O)[C@H](CC(N)=O)NC(=O)[C@H](CCC(=O)O)NC(=O)[C@H](CC(C)C)NC(C)=O)C(=O)N[C@@H](CC(=O)O)C(=O)N[C@@H](CC(C)C)C(=O)N[C@@H](CC(=O)O)C(=O)N[C@@H](CC(C)C)C(=O)N[C@H](C(N)=O)C(C)C`, the EC50 – broadly, the concentration at which the effect is half-maximal – came to 581 nM.

Take `CC(=O)N[C@@H](CO)C(=O)N[C@H](C(=O)NCC(=O)N[C@@H](CO)C(=O)N[C@H](C(=O)N[C@@H](CC(=O)O)C(=O)N[C@@H](Cc1ccc(OP(=O)(O)O)cc1)C(=O)N[C@@H](CC(C)C)C(=O)N[C@@H](C)C(=O)N[C@@H](CC(C)C)C(=O)N[C@@H](CC(=O)O)C(=O)N[C@@H](Cc1ccccc1)C(=O)N[C@@H](CCC(N)=O)C(N)=O)C(C)C)[C@@H](C)O`: the midpoint of the response, the EC50, lay at 902 nM.

Consider `CC[C@H](C)[C@H](NC(=O)[C@H](CC(=O)O)NC(=O)[C@H](C)NC(=O)[C@H](Cc1ccc(OP(=O)(O)O)cc1)NC(=O)[C@H](CCCCN)NC(=O)[C@@H](NC(=O)[C@H](CC(=O)O)NC(=O)CNC(=O)[C@H](CCCCN)NC(=O)[C@H](CCSC)NC(C)=O)C(C)C)C(=O)N[C@@H](CCC(=O)O)C(=O)N[C@@H](CO)C(=O)N[C@@H](CO)C(N)=O`, for which a half-maximal effect (EC50) was put at 15100 nM.

In turn, `CC(=O)N1CCC[C@H]1C(=O)N[C@H](C(=O)N[C@@H](Cc1ccccc1)C(=O)N[C@@H](CO)C(=O)N[C@H](C(=O)N[C@@H](CC(=O)O)C(=O)N[C@@H](Cc1ccc(OP(=O)(O)O)cc1)C(=O)NCC(=O)N[C@@H](CCC(=O)O)C(=O)N[C@@H](CC(C)C)C(=O)N[C@@H](CC(=O)O)C(=O)N[C@@H](Cc1ccccc1)C(=O)N[C@@H](CCC(N)=O)C(N)=O)C(C)C)C(C)C` had an EC50 of 2890 nM.

`CC(=O)N[C@@H](C)C(=O)N[C@@H](CCCCN)C(=O)N[C@@H](CO)C(=O)NCC(=O)N[C@@H](C)C(=O)N[C@H](C(=O)N[C@@H](Cc1ccc(OP(=O)(O)O)cc1)C(=O)N[C@@H](CO)C(=O)N[C@@H](CCC(=O)O)C(=O)N[C@@H](CC(C)C)C(=O)N[C@@H](CC(N)=O)C(=O)N[C@@H](Cc1ccccc1)C(=O)NCC(N)=O)C(C)C` came in with an EC50 of 32700 nM.

With `CSCC[C@H](NC(=O)[C@H](CC(C)C)NC(=O)[C@H](CCC(N)=O)NC(=O)[C@H](C)NC(=O)[C@H](Cc1ccc(OP(=O)(O)O)cc1)NC(=O)[C@H](CC(N)=O)NC(=O)[C@H](CC(C)C)NC(=O)[C@H](C)NC(=O)[C@H](C)NC(=O)[C@H](CCCCN)NC(=O)[C@H](CCCCN)NC(C)=O)C(=O)N[C@@H](Cc1ccccc1)C(=O)N1CCC[C@H]1C(N)=O`, the EC50 was 735 nM.

Molecule `CC[C@H](C)[C@H](NC(=O)[C@H](CC(N)=O)NC(=O)[C@@H](NC(=O)[C@H](Cc1ccc(OP(=O)(O)O)cc1)NC(=O)[C@H](CCC(=O)O)NC(=O)CNC(=O)[C@@H]1CCCN1C(=O)[C@H](CO)NC(=O)[C@H](CCCCN)NC(=O)[C@@H]1CCCN1C(C)=O)C(C)C)C(=O)N[C@@H](CCC(=O)O)C(=O)N[C@@H](Cc1ccccc1)C(=O)NCC(N)=O` gave an EC50 of 20000 nM.

`CC[C@H](C)[C@H](NC(=O)[C@@H](NC(=O)[C@H](C)NC(=O)[C@H](Cc1ccc(OP(=O)(O)O)cc1)NC(=O)[C@H](CCC(=O)O)NC(=O)[C@@H](NC(=O)[C@H](CCC(N)=O)NC(=O)[C@H](CCC(=O)O)NC(=O)[C@@H]1CCCN1C(=O)[C@@H](NC(C)=O)C(C)C)[C@@H](C)O)[C@@H](C)O)C(=O)N[C@H](C(=O)N[C@@H](Cc1ccccc1)C(=O)N1CCC[C@H]1C(N)=O)C(C)C` gave an EC50 of 880 nM.

In the case of `CC[C@H](C)[C@H](NC(=O)[C@@H](NC(=O)[C@H](C)NC(=O)[C@H](Cc1ccc(OP(=O)(O)O)cc1)NC(=O)[C@@H](NC(=O)[C@@H]1CCCN1C(=O)[C@H](CCC(=O)O)NC(=O)[C@@H]1CCCN1C(=O)[C@H](CO)NC(=O)[C@@H](NC(C)=O)C(C)C)[C@@H](C)CC)[C@@H](C)O)C(=O)N[C@@H](CC(=O)O)C(=O)N[C@@H](CC(=O)O)C(=O)N[C@@H](CC(C)C)C(N)=O`, the EC50 stood at 6960 nM.
